According to US9720005B2, “Immunoassay for compounds of the NBOMe family” (Randox Laboratories Limited, priority 2014, dated 2017):
Converted amounts (≈) assume the structure as drawn. Where a name gives a salt, the structure may show the parent alone.

Assays:
[1] = test system: Antibody (RS2708); assay: Competitive ELISA for NBOMe based compounds (Example 13), HRP tracer vs calibrator/cross-reactant; assay type: binding, sheep; conditions: for % CR: relative to 25I-NBOMe.HCl; for % Cross-reactivity: IC50 25I-NBOMe.HCL/IC50 CR×100
Procedure: IgG was extracted from the antisera using ammonium sulphate/caprylic acid precipitation and the purified antibody was immobilised on a 96 well ELISA plate at 5 μg/ml in 10 mM TRIS buffer, pH 8.5 overnight at 4° C. […] The plate was washed (×3) with TBST and the calibrator (25I-NBOMe.HCL) or potential cross reactants added (50 μl per well), followed by HRP tracer (75 μl/well) to the appropriate wells. The plates were then incubated for 60 minutes at 25° C. […] 125 μL of signal (TMB) was then added to each well for 20 mins at room temperature in the dark. The reaction was stopped by the addition of 125 μl of 0.2 M Sulphuric Acid per well and the plates read immediately at 450 nm. Calibration curves were generated and these were used to determine the sensitivity and specificity of the immunoassay for 25I-NBOMe-HCL and potential cross-reactants. The data are inputted to a computer program called ‘KC Junior’ (Biotek). It gives a 4 parameter fit curve and allows the calculation of concentrations between the standard runs. This program is used to calculate the IC50 values by dividing the 0 ng/ml optical density (OD) value by 2 and obtaining the concentration value from the curve for this OD. The results of this study are presented in Tables 1-3, cross-reactivity being calculated according to the following formula: % CR=IC50 25I-NBOMe.HCL/IC50 CR×100
Wherein % CR is the percentage cross-reactivity, IC50 25I-NBOMe HCL is the concentration of 25I-NBOMe-HCL which causes 50% displacement of signal and IC50 CR is the concentration of potential cross-reactant that causes 50% displacement of signal.

[2] = recreational drug use; cited from earlier work
[3] = case study of 25I-NBOMe use; cited from earlier work
[4] = Table 2, antibody coated at 5 μg/ml, HRP tracer at 1/64K

| SMILES | % Cross-reactivity ([1]; Table 2) | IC50 [1, 4] | other results |
| --- | --- | --- | --- |
| COc1cc(CCN)c(OC)cc1I [Compound 2C-I] | – | – | B/Bo ([1]; Table 4, samples @ 100 ng/ml): 88.8; IC50 ([1]; Table 4, samples @ 100 ng/ml): >100; % CR ([1]; Table 4, samples @ 100 ng/ml): <0.16%; dose [2]: around 20 milligrams |
| CCc1cc(OC)c(CCN)cc1OC [Compound 2C-E] | – | – | B/Bo ([1]; Table 4, samples @ 100 ng/ml): 92.2; IC50 ([1]; Table 4, samples @ 100 ng/ml): >100; % CR ([1]; Table 4, samples @ 100 ng/ml): <0.16% |
| COc1cc(CCNCc2ccccc2OC)c(OC)cc1C [25D-NBOMe•HCl, 2-(2,5-Dimethoxy-4-methylphenyl)-N-[(2-methoxyphenyl)methyl]ethanamine] | 157.7% | 0.104 ng/mL | – |
| CCCSc1cc(OC)c(CCNCc2ccccc2OC)cc1OC [25T7-NBOMe•HCl] | 118% | 0.139 ng/mL | – |
| COc1cc(CCNCc2ccccc2OC)c(OC)cc1I [Compound 25I-NBOMe, 2-(4-Iodo-2,5-dimethoxyphenyl)-N-[(2-methoxyphenyl)methyl] ethanamine] | – | – | Clinical features [3]: tachycardia, hypertension, agitation, aggression, visual and auditory hallucinations, seizures, hyperplexia, clonus, elevated white cell count, elevated creatine kinase, metabolic acidosis and acute kidney injury; dose [2]: less than one milligram |
| COc1cc(CCNCc2ccccc2OC)c(OC)cc1I [25I-NBOMe•HCl, 2-(4-Iodo-2,5-dimethoxyphenyl)-N-[(2-methoxyphenyl)methyl] ethanamine] | 100% | 0.164 ng/mL | B/Bo ([1]; Conc. 0.03125 ng/ml, 0 ng/ml = 100.0): 90.2; B/Bo ([1]; Conc. 0.0625 ng/ml, 0 ng/ml = 100.0): 80.2; B/Bo ([1]; Conc. 0.125 ng/ml, 0 ng/ml = 100.0): 61.3; B/Bo ([1]; Conc. 0.25 ng/ml, 0 ng/ml = 100.0): 33.4; B/Bo ([1]; Conc. 0.5 ng/ml, 0 ng/ml = 100.0): 14.7; B/Bo ([1]; Conc. 1 ng/ml, 0 ng/ml = 100.0): 7.6; B/Bo ([1]; Conc. 2 ng/ml, 0 ng/ml = 100.0): 5.3; IC50 ([1]; Table 1, antibody coated at 5 μg/ml, HRP tracer at 1/64K): 0.164 ng/mL |
| COc1cc([N+](=O)[O-])c(OC)cc1CCNCc1ccccc1O [Compound 25N-NBOH] | 26.7% | 0.615 ng/mL (≈ 1.85 nM) | – |
| CCCc1cc(OC)c(CCNCc2ccccc2OC)cc1OC [25P-NBOMe•HCl] | 111.6% | 0.147 ng/mL | – |
| COc1cc(SC(C)C)c(OC)cc1CCNCc1ccccc1OC [25T4-NBOMe•HCl] | 118% | 0.139 ng/mL | – |
| COc1cc(CCNCc2ccccc2OC)c(OC)cc1Br [25B-NBOMe•HCl, 2-(4-Bromo-2,5-dimethoxyphenyl)-N-[(2-methoxyphenyl)methyl]ethanamine] | 118.8% | 0.138 ng/mL | – |
| COc1cc(CCN)c(OC)cc1Br [Compound 2C-B] | – | – | B/Bo ([1]; Table 4, samples @ 100 ng/ml): 89.9; IC50 ([1]; Table 4, samples @ 100 ng/ml): >100; % CR ([1]; Table 4, samples @ 100 ng/ml): <0.16% |
| COc1cc(CCNCc2ccccc2O)c(OC)cc1N [25(NH2)-NBOH] | 18.5% | 0.887 ng/mL (≈ 2.93 nM) | – |
| COc1cc([N+](=O)[O-])c(OC)cc1CCNCc1ccccc1OC [25N-NBOMe•HCl, N-(2-Methoxybenzyl)-2-(2,5-dimethoxy-4-nitrophenyl)ethylamine] | 115.5% | 0.142 ng/mL | – |
| COc1ccc(OC)c(CCNCc2ccccc2OC)c1 [25H-NBOMe•HCl, 2-(2,5-dimethoxyphenyl)-N-(2-methoxybenzyl)ethanamine] | 170.8% | 0.096 ng/mL | – |
| CCc1cc(OC)c(CCNCc2ccccc2OC)cc1OC [25E-NBOMe•HCl] | 126.2% | 0.13 ng/mL | – |
| CCSc1cc(OC)c(CCNCc2ccccc2OC)cc1OC.Cl [25T2-NBOMe•HCl] | 120.6% | 0.136 ng/mL | – |
| COc1ccccc1CNCCc1cc(OC)c(OC)c(OC)c1.Cl [Mescaline-NBOMe•HCl] | 164% | 0.1 ng/mL | – |
| COc1cc(CC(C)N)c(OC)cc1Br (stereo not shown) [DOB, 2,5-Dimethoxy-4-bromoamphetamine] | – | – | B/Bo ([1]; Table 4, samples @ 100 ng/ml): 91.8; IC50 ([1]; Table 4, samples @ 100 ng/ml): >100; % CR ([1]; Table 4, samples @ 100 ng/ml): <0.16% |
